≈ marks a conversion by molar mass, not a printed value. Like-named read-outs stand apart in the source and are kept apart here.
What was measured:
[1] = tested on: Staphylococcus aureus RN 4222 (WT); experiment: MIC determination in wild type S. aureus; type: cell-based
Procedure: (§1) Determination of minimal inhibitory concentrations (MICs). MICs were determined by serial two-fold dilution of antimicrobials in Mueller-Hinton broth containing chloramphenicol ([…]). […] Around 10^5 cells were inoculated in 1 ml of medium for the test. MICs were read after 18 hours of incubation at 37 C. with aeration. The 50% inhibitory concentration (IC50) was determined by growing cells in microtiter plate wells and reading the optical density after overnight growth at 650 nm.

[2] = tested on: Staphylococcus aureus KLE 820 (norA−); experiment: microbe, parasite or virus in culture; type: cell-based; conditions: for Sensitivity of norA- as compared to the wild type: in the absence of reserpine
From the text: Disruption of the norA gene. Chloramphenicol acetyltransferase (CAT) gene was isolated by digesting plasmid pLI50 (10) with Sau3A (New England Biolabs). The CAT gene was cloned into the BamHI site of plasmid pSP72 (Promega) to yield plasmid PCH22. Chromosomal DNA from S. aureus RN4220 was isolated according to the protocol of Qiagen, Inc. Part of the 1050 bp norA gene lacking a 80 bp N-terminus and a 20 bp C-terminus was PCR-amplified from chromosomal DNA using primer A:5′-[…]-[…] and primer B:5′-[…]. This fragment was cloned into the EcoRI/EcoRV site of PCH22 to yield plasmid PCH23. S. aureus were transformed by PCH23 using electroporation (11). Cells were plated on trypticase soy agar (TSA) with chloramphenicol. A transformant colony was picked after 24 hours of incubation at 37 C., regrown, plated on CAM medium and a large colony was picked for further work.
as §1

S. aureus = experiment: MICs of antimicrobials with small molecule MDR inhibitor (I) and high pH; type: cell-based, Staphylococcus aureus; conditions: for Potentiation factor (pH 7/(pH 9 + I)): pH 7 vs pH 9 + I
Procedure: as §1

[3] = Staphylococcus aureus, RN 4222 (WT), pH 7.2, read-out: MIC
[4] = Staphylococcus aureus, RN 4222 (WT), pH 9, read-out: MIC
[5] = Staphylococcus aureus, pH 7.2, KLE 820 (norA−), pH 7.2
[6] = Staphylococcus aureus, pH 9, KLE 820 (norA−), pH 9
[7] = Staphylococcus aureus, pH 7, read-out: MIC
[8] = Staphylococcus aureus, pH 9, read-out: MIC
[9] = Staphylococcus aureus, RN 4222 (WT), −R (no reserpine), read-out: MIC
[10] = RN 4222 (WT), +R (20 μg/mL reserpine)
[11] = Staphylococcus aureus, KLE 820 (norA−), −R (no reserpine)
[12] = KLE 820 (norA−), +R (20 μg/mL reserpine)

Work on `COc1ccc2cc3[n+](cc2c1OC)CCc1cc2c(cc1-3)OCO2` [Berberine] yielded an MIC [1, 3] of 60 µg/mL, an MIC [1, 4] of 3.75 µg/mL and an MIC [2, 5] of 7.5 µg/mL. The MIC [2, 6] was 0.23 µg/mL, the “substrate of NorA” value ([2]; based on comparison of MIC from wild type and norA−) was “substrates of NorA” and the “increase in sensitivity, pH 9 combined with norA mutation” value ([2]; norA− at pH 9 vs wild type at neutral pH) was 260 fold. For the same compound, the “Sensitivity norA− at pH 9 vs. WT at pH 7.2” value [2] was 260, the “increase in sensitivity by norA mutation” value ([2]; norA− vs wild type) was 32 fold and the MIC (S. aureus; [7]) was 60 µg/mL. The MIC (S. aureus; [8]) was 7.5 µg/mL, the MIC (S. aureus; Staphylococcus aureus, MDR inhibitor and high pH, read-out: MIC) was 0.012 µg/mL and the “substrate of MDR pumps” value (S. aureus; cationic plant antimicrobial alkaloids) was “good substrates of MDR pumps”. The MIC (S. aureus; pH 7 + I (10 μg/mL)) was 0.4 µg/mL, the Ratio (S. aureus; pH 7 vs pH 7 + I) was 150 and the “Potentiation factor (pH 7/(pH 9 + I))” value (S. aureus) was 4,800. The MIC (S. aureus; pH 9 + I) was 0.0125 µg/mL, the Ratio (S. aureus; pH 9 vs pH 9 + I) was 600 and the “increase in potency by MDR inhibitor” value (S. aureus; proprietary MDR inhibitor (I), Table 3, pH 7) was 150 fold.
In the case of `CC(=O)OCC1=C(C(=O)O)N2C(=O)[C@@H](NC(=O)Cc3cccs3)[C@H]2SC1` [Cephalothin], the MIC [1, 9] is reported as 0.15 µg/mL (≈ 0.378 µM) and the “Sensitivity of norA- as compared to the wild type” value [2] is reported as 1.
`[H]/N=C(\N/C(=N/[H])NCCCCCCNC(=N)NC(=N)Nc1ccc(Cl)cc1)Nc1ccc(Cl)cc1` [Chlorhexidine] was tested, and the MIC [1, 3] was 0.5 µg/mL (≈ 0.989 µM), the MIC [1, 4] was 0.06 µg/mL (≈ 0.119 µM) and the “effect of pH 9 on sensitivity / effectiveness” value ([1]; change of pH from 7 to 9) was “significantly increased the effectiveness”. For the same compound, the MIC [2, 5] was 0.125 µg/mL (≈ 0.247 µM), the MIC [2, 6] was 0.0156 µg/mL (≈ 0.0309 µM) and the “Sensitivity norA− at pH 9 vs. WT at pH 7.2” value [2] was 32. For the same compound, the MIC (S. aureus; [7]) was 0.5 µg/mL (≈ 0.989 µM), the MIC (S. aureus; [8]) was 0.12 µg/mL (≈ 0.237 µM) and the “potentiation by high pH and MDR inhibitor” value (S. aureus; high pH combined with MDR inhibitor / MDR inactivation) was 133 fold. The MIC (S. aureus; pH 7 + I (10 μg/mL)) was 0.06 µg/mL, the Ratio (S. aureus; pH 7 vs pH 7 + I) was 8.3 and the “Potentiation factor (pH 7/(pH 9 + I))” value (S. aureus) was 133. For the same compound, the MIC (S. aureus; pH 9 + I) was 0.0037 µg/mL and the Ratio (S. aureus; pH 9 vs pH 9 + I) was 32.
Work on `O=C(O)c1cn(C2CC2)c2cc(N3CCNCC3)c(F)cc2c1=O` [Ciprofloxacin] yielded an MIC [1, 10] of 0.33 µg/mL (≈ 0.996 µM) and an MIC [1, 9] of 0.67 µg/mL (≈ 2.02 µM).
With `CCC[C@@H]1C[C@@H](C(=O)N[C@@H]([C@H]2O[C@H](SC)[C@H](O)[C@@H](O)[C@H]2O)[C@H](C)Cl)N(C)C1` [Clindamycin] the MIC [1, 9] was 0.047 µg/mL (≈ 0.111 µM) and the “Sensitivity of norA- as compared to the wild type” value [2] was 1.
For `CC[C@H]1OC(=O)[C@H](C)[C@@H](O[C@H]2C[C@@](C)(OC)[C@@H](O)[C@H](C)O2)[C@H](C)[C@@H](O[C@@H]2O[C@H](C)C[C@H](N(C)C)[C@H]2O)[C@](C)(O)C[C@@H](C)C(=O)[C@H](C)[C@@H](O)[C@]1(C)O` [Erythromycin], the MIC ([1]; Staphylococcus aureus) was 0.195 µg/mL (≈ 0.266 µM), the MIC [2, 11] was 0.195 µg/mL (≈ 0.266 µM) and the “Sensitivity of norA- as compared to the wild type” value [2] was 1.
With `CC[n+]1c(-c2ccccc2)c2cc(N)ccc2c2ccc(N)cc21` [EtBr, ethidium bromide] the MIC [1, 10] was 1.25 µg/mL, the MIC ([1]; Staphylococcus aureus) was 5 µg/mL and the MIC ([1]; Staphylococcus aureus, pH 7.2) was 5 µg/mL. It also gave an MIC ([1]; Staphylococcus aureus, pH 9) of 0.078 µg/mL, an MIC [2, 12] of 0.33 µg/mL and an MIC [2, 11] of 0.33 µg/mL. The MIC [2, 5] was 0.312 µg/mL, the MIC [2, 6] was 0.01 µg/mL and the “Sensitivity of norA- as compared to the wild type” value [2] was 16. The “Sensitivity norA− at pH 9 vs. WT at pH 7.2” value [2] was 500.
For `NC[C@H]1O[C@H](O[C@H]2[C@H](O)[C@@H](O[C@H]3O[C@H](CO)[C@@H](O)[C@H](N)[C@H]3O)[C@H](N)C[C@@H]2N)[C@H](O)[C@@H](O)[C@@H]1O` [Kanamycin], the MIC [1, 9] was 0.33 µg/mL (≈ 0.681 µM) and the “Sensitivity of norA- as compared to the wild type” value [2] was 1.
`CCC[C@@H]1C[C@@H](C(=O)N[C@@H]([C@H]2O[C@H](SC)[C@H](O)[C@@H](O)[C@H]2O)[C@@H](C)O)N(C)C1` [Lincomycin] was tested, and the MIC [1, 9] was 0.6 µg/mL (≈ 1.48 µM) and the “Sensitivity of norA- as compared to the wild type” value [2] was 1.
`CCn1cc(C(=O)O)c(=O)c2cc(F)c(N3CCNCC3)cc21` [Norfloxacin] gave an MIC [1, 10] of 0.67 µg/mL (≈ 2.1 µM), an MIC [1, 3] of 1.25 µg/mL (≈ 3.91 µM) and an MIC [1, 4] of 1.25 µg/mL (≈ 3.91 µM). It also gave an MIC [1, 9] of 1.25 µg/mL (≈ 3.91 µM), an MIC [2, 12] of 0.33 µg/mL (≈ 1.03 µM) and an MIC [2, 11] of 0.33 µg/mL (≈ 1.03 µM). The MIC [2, 5] was 0.33 µg/mL (≈ 1.03 µM), the MIC [2, 6] was 0.33 µg/mL (≈ 1.03 µM) and the “Sensitivity of norA- as compared to the wild type” value [2] was 4. For the same compound, the “Sensitivity norA− at pH 9 vs. WT at pH 7.2” value [2] was 4.

Reference: patent US6410041B1, “Culturing cells in presence of amphipathic weak bases and/or cations and multiple drug resistance inhibitor containing reserpine” (priority 1998, dated 2002)
